Experiments:
microbes [1] = assay: Disinfection of a contact lens removed from the eye and treated by a disinfecting/cleaning regimen; assay type: cell-based; conditions: Alexidine at 4.5 ppm; lens removed from the eye and treated with solution
Method: (§1) For the purposes of this patent application a disinfecting amount is an amount of an antimicrobial agent that passes the Stand Alone Disinfecting Efficacy Test by the Food and Drug Administration (510k) of the United States of America in a minimum of three out of four test samples in a test solution that is diluted with 0.9 wt. % saline solution in a 1:1 ratio of test solution to saline solution.
(§2) The FDA (510 (k)) Guidance Document for contact lens products defines procedures that measure the extend of viability loss of representative microorganisms at established time intervals to determine the extend of viability loss. FDA (510 (k)) Guidance Documents recommended test organisms for both disinfecting stand-alone and preservative efficacy testing are composed of three bacteria (Pseudomonas aeruginosa ATCC 9027, Stapylococcus aureus ATCC 6538, and Serratia marcescens ATCC 13880) and two fungi (Candida albicans ATCC 10231, and Fusarium solani ATCC 36031). The performance requirement biocidal stand alone testing calls for 3 log reduction for bacterial cells and 1 log reduction for each fungi. At day 28, after the rechallenge on day 14, the performance requirement for preservative efficacy testing calls for reduction of 3.0 logs per bacteria and ±0.5 for fungi.
(§3) With Alexidine, it has been discovered that approximately 1 ppm is required to disinfect each of the solutions above. […]

microbes [2] = assay: Amount of Alexidine required to disinfect the solutions; assay type: cell-based; conditions: in Formulae 1-4
Method: as §1, §2, §3

For `CCCCC(CC)CNC(=N)NC(=N)NCCCCCCNC(=N)NC(=N)NCC(CC)CCCC` (centres unmarked) [Alexidine, 1,1′-hexamethylenebis[5-(2-ethylhexyl)biguanide]], the “antimicrobial activity to disinfect a contact lens” value (microbes [1]) was “sufficient antimicrobial activity to disinfect a contact lens” and the “amount of Alexidine required to disinfect each of the solutions” value (microbes [2]) was “approximately 1 ppm”.
